Source: patent US20260216368A1, “BIS-ESTER AND AMIDE CATIONIC LIPIDS” (SANOFI PASTEUR INC., priority 2022, published 2026)
One block for each compound: values may come before it.

Tests used:
[1] = RiboGreen assay, % encapsulation of mRNA in lipid nanoparticles; type: physicochemical; settings: hEPO mRNA LNP, Cationic Lipid:DMG-PEG2000:Cholesterol:DOPE=40:1.5:28.5:30, N/P ratio 4, Process A
Description: In embodiments, the lipid nanoparticle encapsulates a nucleic acid, optionally an mRNA encoding a peptide or protein. In embodiments, the peptide is an antigen. In embodiments, the lipid nanoparticle encapsulates an mRNA encoding a peptide or protein. As used herein, the phrase “encapsulation percentage” refers to the fraction of therapeutic agent (e.g. mRNA) that is effectively encapsulated within a liposomal-based vehicle (e.g. a lipid nanoparticle) relative to the initial fraction of therapeutic agent present in the lipid phase. In embodiments, the lipid nanoparticles have an encapsulation percentage for mRNA of at least 50%. In embodiments, the lipid nanoparticles have an encapsulation percentage for mRNA of at least 55%. In embodiments, the lipid nanoparticles have an encapsulation percentage for mRNA of at least 60%. In embodiments, the lipid nanoparticles have an encapsulation percentage for mRNA of at least 65%. In embodiments, the lipid nanoparticles have an encapsulation percentage for mRNA of at least 70%. In embodiments, the lipid nanoparticles have an encapsulation percentage for mRNA of at least 75%. In embodiments, the lipid nanoparticles have an encapsulation percentage for mRNA of at least 80%. In embodiments, the lipid nanoparticles have an encapsulation percentage for mRNA of at least 85%. In embodiments, the lipid nanoparticles have an encapsulation percentage for mRNA of at least 90%. In embodiments, the lipid nanoparticles have an encapsulation percentage for mRNA of at least 95%. In embodiments, the encapsulation percentage is calculated by performing the Ribogreen assay (Invitrogen) with and without the presence of 0.1% Triton-X 100.
The RiboGreen Assay is a fluorescence-based method for the determination of mRNA concentration (Total and Free) and % encapsulation using Quant-iT™ RiboGreen® RNA reagent in mRNA containing lipid nanoparticles.
• To each of the standards (Blank, mRNA-1, mRNA-2. mRNA-3, mRNA-4, mRNA-5) and Samples (free mRNA and total mRNA), add 1.0 mL of 200-fold Ribogreen Reagent Solution and gently mix by inversion. This is a 2× Dilution. • Add 200 μL of each standard and sample in triplicate using the reverse pipetting technique in a 96-well Costar Black with Clear Background Plate. Ensure no bubbles are present in the plate before the fluorescence reading. • Read the fluorescence signal using the below instrument parameters: • Read Type: Fluorescence, Bottom Read • Excitation: 485 nm; Cut-off: 515 nm; Emission: 530 nm • Plate Type: 96-well Costar Black with Clear Background
The average fluorescence from each calibration standard is plotted against the concentration to generate a linear calibration curve using the MS Excel software. The coefficient of determination (R^2) of calibration curve must be R^2>0.99.
[formula] • Where, • Y=average fluorescence value • m: slope • x: concentration (pg/mL) • c: y-intercept • Using the linear equation, calculate the concentration of free and total mRNA concentration in the test sample by replacing the y value in the equation with the average fluorescence value of each respective sample • Once the concentration is determined, the actual concentration in the sample can be back-calculated by multiplying the concentration in the test sample with the dilution factor (DF) as follows:
[formula] • Concentration of encapsulated mRNA can be determined by subtracting the concentration of free mRNA from the total mRNA. • % Encapsulation can then be calculated by taking the ratio of encapsulated mRNA over total mRNA and multiplying the result with 100.

[2] = DLS size and polydispersity of hEPO mRNA lipid nanoparticles; type: physicochemical; settings: hEPO mRNA LNP, Cationic Lipid:DMG-PEG2000:Cholesterol:DOPE=40:1.5:28.5:30, N/P ratio 4, Process A
Procedure: The lipid nanoparticles in the examples of the present invention were formulated using Process A of WO 2018/089801 (see, e.g., Example 1 and FIG. 1 of WO 2018/089801). Process A (“A”) relates to a conventional method of encapsulating mRNA by mixing mRNA with a mixture of lipids, without first pre-forming the lipids into lipid nanoparticles. In an exemplary process, an ethanol lipid solution and an aqueous buffered solution of mRNA were prepared separately. A solution of mixture of lipids (cationic lipid, helper lipids, zwitterionic lipids, PEG lipids etc.) was prepared by dissolving lipids in ethanol. The mRNA solution was prepared by dissolving the mRNA in citrate buffer. Then, these two solutions were mixed using a pump system. In some instances, the two solutions were mixed using a gear pump system. In certain embodiments, the two solutions were mixing using a ‘T’ junction (or “Y” junction). The mixture was then purified by diafiltration with a TFF process. The resultant formulation concentrated and stored at 2-8° C. until further use.
(§1) Lipid nanoparticle formulations of Table 1 were prepared by Process A. More specifically, an ethanolic solution of a mixture of lipids including DMG-PEG-2000, cationic lipid, cholesterol, and phosphatidylethanolamine (DOPE) in a ratio of 1.5:40:28.5:30 were combined with an aqueous buffered solution (1 mM Citrate and 150 mM NaCl) of target mRNA at an acidic pH (4.5) under controlled conditions to yield a dispersion of uniform lipid nanoparticles (LNPs). Upon ultrafiltration and diafiltration into the final buffer, the resulting nanoparticle dispersions were diluted to required concentration using the final buffer (10% Trehalose), sterile filtered and stored frozen at −80° C. until use.
All of the lipid nanoparticle formulations comprised hEPO mRNA and the different lipids in following mol % ratios: Cationic Lipid: DMG-PEG2000; Cholesterol:DOPE=40:1.5:28.5:30.
DLS measurements were performed using a Malvern Instruments Zetasizer with a backscattering detector angle of 173° and a 4-mW, 633-nm He—Ne laser (Worcestershire, UK). The samples were analyzed by diluting in 10% Trehalose and measuring the size and Poly dispersity Index (PDI) in an optical grade polystyrene cuvette.
The following lipid nanoparticles were formulated according to Example 51.
as §1, with “Table 3” for “Table 1”

[3] = test system: Human erythropoietin (hEPO) levels in sera; assay: Delivery of hEPO mRNA by intramuscular administration of lipid nanoparticles; serum hEPO by ELISA; type: in vivo, Mouse; settings: for hEPO 6 Hr (ng/mL) Mean / hEPO 24 Hr (ng/mL) Mean: serum, 0.1 μg/animal hEPO mRNA LNP, n=4; for hEPO 6 Hr (ng/mL) Mean: 6 hours post dose; for in vivo hEPO protein production (FIG. 51): intramuscular delivery of hEPO mRNA using lipid nanoparticles comprising the compound, result in words; for hEPO 24 Hr (ng/mL) Mean: 24 hours post dose
Procedure: WO2022/099003 A1 describes an in vivo assay for intramuscular administration (e.g. on page 46, paragraph [00206]). Further details of the intramuscular experiment performed in this application are provided below.
Treatment Regimen: On Day 1, animals from Groups 1-8 were dosed via intramuscular injection while under light isoflurane anesthesia according to the study design table above. Animals in Groups 2-8 were injected with EPO in the right leg only. Group 1 animals received saline control.
Interim Sample Collections: Interim whole blood (~50 μL) was collected by tail snip or saphenous vein at 6 hours post dose administration (±5%). Blood samples were collected into serum separator tubes, allowed to clot at room temperature for at least 10 minutes, centrifuged at ambient temperature at minimum 1000 g for 10 minutes and the serum was extracted. All serum samples were stored at nominally −70° C. until analysis hEPO by the Testing Facility. The results of the EPO analysis were included in the Data Submission.
Terminal Blood Collections: Whole blood was collected via cardiac puncture into serum separator tube, allowed to clot at room temperature for at least 10 minutes, centrifuged at ambient temperature at minimum 1000 g for 10 minutes and the serum was extracted. Serum samples were stored at nominally −70° C. until analyzed for hEPO by the Test Facility.
ELISA Assay: Human erythropoietin (hEPO) levels in sera samples were determined by ELISA kit (R&D systems, Cat #DEP-00) according to the manufactory instruction and the results were included in the Data Submission. The “shaker” protocol was used. The serum samples were diluted between 1:40 and 1:100.
The ability of the further exemplary lipid nanoparticles in Example 54 to deliver hEPO mRNA by intramuscular administration was tested in accordance with the experimental protocol set out in Example 52.

[4] = single IM injection, female BALB/cJ mice

SMILES: CCCCCCCCCCCOC(=O)CCCC(O)CN(CCCCN(C)C(=O)CN(C)CC(=O)N(C)CCCCN(CC(O)CCCCCC(=O)OC(CCCCCCCC)CCCCCCCC)CC(O)CCCC(=O)OCCCCCCCCCCC)CC(O)CCCCCC(=O)OC(CCCCCCCC)CCCCCCCC (stereo not shown) [Compound LXXVII, di(heptadecan-9-yl) 7,27-dihydroxy-9,25-bis(2-hydroxy-6-oxo-6-(undecyloxy)hexyl)-14,17,20-trimethyl-15,19-dioxo-9,14,17,20,25-pentaazatritriacontanedioate]
Encapsulation Percentage (%) ([1]; Table 3, further LNPs): 99%
PDI ([2]; Table 3, further LNPs): 0.137
Size (nm) ([2]; Table 3, further LNPs): 114 nm
hEPO 6 Hr (ng/mL) Mean ([3]; fifth occasion, IM, mice): 45.6 ng/mL

SMILES: CCCCCCCCCCC(O)CN(CCCOC(=O)N[C@@H](Cc1ccccc1)C(=O)OCCCN(CC(O)CCCCCCCCCC)CC(O)CCCCCCCCCC)CC(O)CCCCCCCCCC (stereo partly drawn) [Compound XCVII, 3-(bis(2-hydroxydodecyl)amino)propyl ((3-(bis(2-hydroxydodecyl)amino)propoxy)carbonyl)-L-phenylalaninate]
Encapsulation Percentage (%) ([1]; Table 3, further LNPs): 83%
PDI ([2]; Table 3, further LNPs): 0.101
Size (nm) ([2]; Table 3, further LNPs): 125 nm
hEPO 6 Hr (ng/mL) Mean ([3]; third occasion, IM, mice): 16.0 ng/mL

SMILES: CCCCCCCCCCC(=O)OCCCCC(O)CN(CCCCNC(=O)CC(C)(O)CC(=O)NCCCCN(CC(O)CCCCCOC(=O)C(CCCCCCCC)CCCCCCCC)CC(O)CCCCOC(=O)CCCCCCCCCC)CC(O)CCCCCOC(=O)C(CCCCCCCC)CCCCCCCC (stereo not shown) [Compound XCIV]
Encapsulation Percentage (%) ([1]; Table 3, further LNPs): 96%
PDI ([2]; Table 3, further LNPs): 0.085
Size (nm) ([2]; Table 3, further LNPs): 138 nm
hEPO 6 Hr (ng/mL) Mean ([3]; fifth occasion, IM, mice): 36.4 ng/mL

SMILES: CCCCCCCCCCC(O)CN(CCCOC(=O)[C@H](CCc1ccccc1)NC(=O)CCCN(CC(O)CCCCCCCCCC)CC(O)CCCCCCCCCC)CC(O)CCCCCCCCCC (stereo partly drawn) [Compound XCVI, 3-(bis(2-hydroxydodecyl)amino)propyl (2S)-2-(4-(bis(2-hydroxydodecyl)amino)butanamido)-4-phenylbutanoate]
Encapsulation Percentage (%) ([1]; Table 3, further LNPs): 85%
PDI ([2]; Table 3, further LNPs): 0.166
Size (nm) ([2]; Table 3, further LNPs): 123 nm
hEPO 6 Hr (ng/mL) Mean ([3]; fourth occasion, IM, mice): 37.3 ng/mL

SMILES: CCCCCCCCCCC(O)CN(CCCOC(=O)N[C@@H](Cc1c[nH]cn1)C(=O)OCCCN(CC(O)CCCCCCCCCC)CC(O)CCCCCCCCCC)CC(O)CCCCCCCCCC (stereo partly drawn) [Compound CIII, 3-(bis(2-hydroxydodecyl)amino)propyl ((3-(bis(2-hydroxydodecyl)amino)propoxy)carbonyl)-L-histidinate]
Encapsulation Percentage (%) ([1]; Table 3, further LNPs): 91%
PDI ([2]; Table 3, further LNPs): 0.126
Size (nm) ([2]; Table 3, further LNPs): 93 nm
hEPO 6 Hr (ng/mL) Mean ([3]; fourth occasion, IM, mice): 15.4 ng/mL

SMILES: CCCCCCCCCCC(O)CN(CCCOC(=O)[C@H](Cc1ccc(O)cc1)NC(=O)CCCN(CC(O)CCCCCCCCCC)CC(O)CCCCCCCCCC)CC(O)CCCCCCCCCC (stereo partly drawn) [Compound XCIX, 3-(bis(2-hydroxydodecyl)amino)propyl (4-(bis(2-hydroxydodecyl)amino)butanoyl)-L-tyrosinate]
hEPO 6 Hr (ng/mL) Mean ([3]; third occasion, IM, mice): 38.1 ng/mL

Now from value to compound, other results behind:

Encapsulation Percentage (%) ([1]; Table 1): 67%
PDI ([2]; Table 1): 0.098
Size (nm) ([2]; Table 1): 101 nm
SMILES: CCCCCCCCCCC(O)CN(CCCCOC(=O)CN(C)CC(=O)OCCCCN(CC(O)CCCCCCCCCC)CC(O)CCCCCCCCCC)CC(O)CCCCCCCCCC (stereo not shown) [XIV]
in vivo hEPO protein production (FIG. 51) [3]: high levels of in vivo hEPO protein production
hEPO 6 Hr (ng/mL) Mean [3, 4]: 33.9 ng/mL
hEPO 24 Hr (ng/mL) Mean [3, 4]: 18.3 ng/mL

Encapsulation Percentage (%) ([1]; Table 1): 46%
PDI ([2]; Table 1): 0.091
Size (nm) ([2]; Table 1): 110 nm
SMILES: CCCCCCCCC(O)CN(CCCOC(=O)CN(C)CC(=O)OCCCN(CC(O)CCCCCCCC)CC(O)CCCCCCCC)CC(O)CCCCCCCC (stereo not shown) [XII]
in vivo hEPO protein production (FIG. 51) [3]: high levels of in vivo hEPO protein production
hEPO 6 Hr (ng/mL) Mean [3, 4]: 35.0 ng/mL
hEPO 24 Hr (ng/mL) Mean [3, 4]: 15.1 ng/mL

Encapsulation Percentage (%) ([1]; Table 3, further LNPs): 84%
PDI ([2]; Table 3, further LNPs): 0.134
Size (nm) ([2]; Table 3, further LNPs): 100 nm
SMILES: CCCCCCCCC(O)CN(CCCNC(=O)CC(C)(O)CC(=O)NCCCN(CC(O)CCCCCCCC)CC(O)CCCCCCCC)CC(O)CCCCCCCC (stereo not shown) [LXXXVIII]
hEPO 6 Hr (ng/mL) Mean ([3]; first occasion, IM, mice): 51.7 ng/mL
